Measurements from paper PMC3549521, “Carbocyclic Analogues of Inosine-5’-Monophosphate: Synthesis and Biological Activity” (Acta Naturae, 2012).

What was measured:
[1] = target: T1, human type II inosine-5′-monophosphate dehydrogenase (IMPDH II) (Homo sapiens, UniProt P12268); assay: recombinant enzyme assay, NADH formation at […] nm; positive control; type: biochemical
T1 construct: gene IMPDH2; human recombinant IMPDH II

[2] = target: T1, human type II inosine-5′-monophosphate dehydrogenase (IMPDH II); assay: recombinant enzyme assay, NADH formation at […] nm, […] IMP and […] NAD; type: biochemical

T1 sequence (P12268 2-514): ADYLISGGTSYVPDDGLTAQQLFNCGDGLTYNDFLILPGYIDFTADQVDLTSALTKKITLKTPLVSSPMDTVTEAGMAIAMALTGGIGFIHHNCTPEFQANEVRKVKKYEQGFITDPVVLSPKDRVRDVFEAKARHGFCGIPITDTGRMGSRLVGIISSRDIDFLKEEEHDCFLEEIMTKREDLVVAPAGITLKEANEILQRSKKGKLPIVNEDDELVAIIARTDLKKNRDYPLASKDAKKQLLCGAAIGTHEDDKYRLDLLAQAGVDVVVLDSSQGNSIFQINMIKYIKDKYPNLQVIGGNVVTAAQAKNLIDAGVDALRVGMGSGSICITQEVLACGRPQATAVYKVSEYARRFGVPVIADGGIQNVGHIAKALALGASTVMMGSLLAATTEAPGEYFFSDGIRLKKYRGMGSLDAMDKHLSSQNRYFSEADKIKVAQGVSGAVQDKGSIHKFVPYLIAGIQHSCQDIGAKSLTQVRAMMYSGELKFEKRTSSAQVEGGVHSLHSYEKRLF

| SMILES | IC50 [1] [µM] | Ki [2] [µM] |
| --- | --- | --- |
| NC(=O)c1ncn([C@@H]2O[C@H](COP(=O)(O)O)[C@@H](O)[C@H]2O)n1 [Ribavirin monophosphate] | 2 | – |
| O=c1[nH]cnc2c1ncn2C1C=CC(OCP(=O)(O)O)C1 (stereo not drawn) [compound 1, 9-(4’-Phosphonomethoxy-2’-cyclopenten-1’-yl)hypoxanthine] | – | 474 |
| O=c1[nH]cnc2c1ncn2C1CC(OCP(=O)(O)O)C(O)C1O (stereo not drawn) [compound 2, 9-(4’-phosphonomethoxy-2’,3’-dihydroxycyclopent-1’-yl)hypoxanthine] | – | 975 |
